Experimental data published in patent US20200316100A1, “HALOALKYL FUCOSE-CONTAINING SELECTIN ANTAGONISTS” (GlycoMimetics, Inc., priority 2016, published 2020).

Target: T1, E-selectin/Ig chimera (Homo sapiens, UniProt P16581)
T1 sequence (P16581 22-556): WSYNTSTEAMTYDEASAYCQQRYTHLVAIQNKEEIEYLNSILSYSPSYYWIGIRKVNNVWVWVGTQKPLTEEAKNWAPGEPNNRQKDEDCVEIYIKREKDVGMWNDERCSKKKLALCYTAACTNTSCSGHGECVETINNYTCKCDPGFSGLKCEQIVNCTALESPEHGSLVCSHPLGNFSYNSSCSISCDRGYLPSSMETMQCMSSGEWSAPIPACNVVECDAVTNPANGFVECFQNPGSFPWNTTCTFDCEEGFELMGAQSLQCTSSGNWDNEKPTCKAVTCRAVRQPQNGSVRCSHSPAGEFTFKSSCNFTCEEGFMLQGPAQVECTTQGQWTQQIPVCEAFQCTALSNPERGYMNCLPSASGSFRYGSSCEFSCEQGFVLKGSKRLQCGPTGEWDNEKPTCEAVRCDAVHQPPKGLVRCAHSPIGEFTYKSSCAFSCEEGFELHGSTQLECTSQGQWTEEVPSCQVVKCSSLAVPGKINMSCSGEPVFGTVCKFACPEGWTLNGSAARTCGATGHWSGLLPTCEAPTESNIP
Assay: E-Selectin Activity - Alternative Binding Assay (inhibition of sLea binding to immobilized E-selectin/Ig chimera)
Conditions: concentration required to inhibit binding of biotinylated sLea polyacrylamide/streptavidin-HRP conjugate to immobilized E-selectin by 50%; absorbance 450 nm
Experimental: E-selectin/Ig chimera was immobilized in 96 well microtiter plates by incubation at 37° C. for 2 hours. To reduce nonspecific binding, bovine serum albumin was added to each well and incubated at room temperature for 2 hours. The plate was washed and serial dilutions of the test compounds were added to the wells in the presence of conjugates of biotinylated, sLe^a polyacrylamide with streptavidin/horseradish peroxidase and incubated for 2 hours at room temperature.
To determine the amount of sLe^a hound to immobilized E-selectin after washing, the peroxidase substrate, 3,3′,5,5′ tetrametbylbenzidine (TMB) was added. After 3 minutes, the enzyme reaction was stopped by the addition of H3PO4, and the absorbance of light at a wavelength of 450 nm was determined.

SMILES: CCC1CCCC(OC2OC(CO)C(O)C(OC(CC3CCCCC3)C(=O)O)C2OC(=O)c2ccccc2)C1OC1OC(C(F)(F)F)C(O)C(O)C1O [Compound 75, sodium (5)-2-(((2R,3R,4S,5S,6R)-3-(benzoyloxy)-2-(((1R,2R,3S)-3-ethyl-2-(((2R,3S,4R,5S,6R)-3,4,5-trihydroxy-6-(trifluoromethyl)tetrahydro-2H-pyran-2-yl)oxy)cyclohexypoxy)-5-hydroxy-6-(hydroxymethyl)tetrahydro-2H-pyran-4-yl)oxy)-3-cyclohexylpropanoate]
- IC50: 700 nM
